According to ChEMBL document CHEMBL1201862, “PubChem BioAssay data set” (2004):
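Compound exposure: 48 hours, 5 concentrations, 96-well plates. GI50 is the concentration that inhibits growth by half.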 The source made the active and inactive calls. Cut-off read from the data, not from the text of the source: active = GI50 up to about 1.1 µM and inactive = higher.

How the values were obtained:
Assay in all cases: DTP human tumour cell line panel, 48 h
[1] = test system: T47D
[2] = test system: SNB-19
[3] = test system: RXF 393
[4] = test system: UACC-62
[5] = test system: MOLT-4
[6] = test system: OVCAR-8
[7] = test system: NCI-H460
[8] = test system: LOX IMVI
[9] = test system: A549
[10] = test system: CAKI-1
[11] = test system: A498
[12] = test system: 786-0
[13] = test system: DU-145
[14] = test system: SF-295
[15] = test system: UACC-257
[16] = test system: Hs-578T
[17] = test system: SNB-75
[18] = test system: HCT-116
[19] = test system: HCT-15
[20] = test system: SK-MEL-5
[21] = test system: MDA-MB-435
[22] = test system: ACHN
[23] = test system: MDA-MB-231
[24] = test system: K562
[25] = test system: EKVX
[26] = test system: OVCAR-3
[27] = test system: SW-620
[28] = test system: OVCAR-5
[29] = test system: UO-31
[30] = test system: MDA-N
[31] = test system: Malme-3M
[32] = test system: NCI/ADR-RES
[33] = test system: NCI-H522
[34] = test system: NCI-H226
[35] = test system: KM12
[36] = test system: HT-29
[37] = test system: SN12C
[38] = test system: BT-549
[39] = test system: CCRF-CEM
[40] = test system: RPMI-8226
[41] = test system: SF-268
[42] = test system: HOP-62
[43] = test system: SR
[44] = test system: M14
[45] = test system: SK-MEL-2
[46] = test system: TK-10
[47] = test system: MCF7
[48] = test system: U-251
[49] = test system: COLO 205
[50] = test system: HCC 2998
[51] = test system: SK-OV-3
[52] = test system: SK-MEL-28
[53] = test system: PC-3
[54] = test system: IGROV-1
[55] = test system: OVCAR-4
[56] = test system: HOP-92
[57] = test system: HL-60
[58] = test system: NCI-H23
[59] = test system: SF-539

SMILES: Cc1sc2c(c1C)C(=O)c1cccn1-2
- GI50 [1]: 39.8 µM (inactive)
- GI50 [2]: > 100 µM (inactive)
- GI50 [3]: 59 µM (inactive)
- GI50 [4]: 62.7 µM (inactive)
- GI50 [5]: 38.8 µM (inactive)
- GI50 [6]: > 100 µM (inactive)
- GI50 [7]: > 100 µM (inactive)
- GI50 [8]: 64.9 µM (inactive)
- GI50 [9]: 60.5 µM (inactive)
- GI50 [10]: 85.7 µM (inactive)
- GI50 [11]: 60 µM (inactive)
- GI50 [12]: 87.7 µM (inactive)
- GI50 [13]: 95.3 µM (inactive)
- GI50 [14]: > 100 µM (inactive)
- GI50 [15]: > 100 µM (inactive)
- GI50 [16]: 37.7 µM (inactive)
- GI50 [17]: 35.2 µM (inactive)
- GI50 [18]: 61.2 µM (inactive)
- GI50 [19]: > 100 µM
- GI50 [20]: > 100 µM (inactive)
- GI50 [21]: 56.6 µM (inactive)
- GI50 [22]: > 100 µM (inactive)
- GI50 [23]: 96.4 µM (inactive)
- GI50 [24]: 38.8 µM (inactive)
- GI50 [25]: 56.4 µM (inactive)
- GI50 [26]: > 100 µM (inactive)
- GI50 [27]: 72.6 µM (inactive)
- GI50 [28]: > 100 µM (inactive)
- GI50 [29]: 54.7 µM (inactive)
- GI50 [30]: 28.6 µM (inactive)
- GI50 [31]: > 100 µM (inactive)
- GI50 [32]: > 100 µM (inactive)
- GI50 [33]: 92 µM (inactive)
- GI50 [34]: > 100 µM (inactive)
- GI50 [35]: > 100 µM (inactive)
- GI50 [36]: 53.8 µM (inactive)
- GI50 [37]: 78.2 µM (inactive)
- GI50 [38]: 47.2 µM (inactive)
- GI50 [39]: 56.1 µM (inactive)
- GI50 [40]: 50.7 µM (inactive)
- GI50 [41]: > 100 µM (inactive)
- GI50 [42]: > 100 µM (inactive)
- GI50 [43]: 19.3 µM (inactive)
- GI50 [44]: > 100 µM (inactive)
- GI50 [45]: > 100 µM (inactive)
- GI50 [46]: > 100 µM (inactive)
- GI50 [47]: 68.5 µM (inactive)
- GI50 [48]: 61.7 µM (inactive)
- GI50 [49]: > 100 µM (inactive)
- GI50 [50]: > 100 µM (inactive)
- GI50 [51]: > 100 µM (inactive)
- GI50 [52]: > 100 µM (inactive)
- GI50 [53]: 65.3 µM (inactive)
- GI50 [54]: 64.7 µM (inactive)
- GI50 [55]: > 100 µM (inactive)

SMILES: N#Cc1c(-c2ccccc2)cc(-c2ccc(Cl)cc2)[nH]c1=S
- GI50 [1]: 18.7 µM (inactive)
- GI50 [2]: 32.8 µM (inactive)
- GI50 [3]: 34 µM (inactive)
- GI50 [4]: 27.9 µM (inactive)
- GI50 [5]: 28.1 µM (inactive)
- GI50 [6]: 43.6 µM (inactive)
- GI50 [56]: 65.9 µM (inactive)
- GI50 [7]: 32.5 µM (inactive)
- GI50 [8]: 25.5 µM (inactive)
- GI50 [9]: 38.4 µM (inactive)
- GI50 [10]: 51.4 µM (inactive)
- GI50 [11]: 22.6 µM (inactive)
- GI50 [12]: 53.3 µM (inactive)
- GI50 [13]: 53.6 µM (inactive)
- GI50 [14]: 27.1 µM (inactive)
- GI50 [16]: 38.8 µM (inactive)
- GI50 [17]: 37.1 µM (inactive)
- GI50 [18]: 33.1 µM (inactive)
- GI50 [19]: 25.8 µM
- GI50 [20]: 17.7 µM (inactive)
- GI50 [21]: 14.3 µM (inactive)
- GI50 [22]: 21.5 µM (inactive)
- GI50 [23]: 23.4 µM (inactive)
- GI50 [24]: 34 µM (inactive)
- GI50 [25]: 30.4 µM (inactive)
- GI50 [57]: 45.6 µM (inactive)
- GI50 [26]: 38.8 µM (inactive)
- GI50 [27]: 28.4 µM (inactive)
- GI50 [28]: 62.4 µM (inactive)
- GI50 [29]: 24.8 µM (inactive)
- GI50 [30]: 34.5 µM (inactive)
- GI50 [31]: 27 µM (inactive)
- GI50 [32]: 39.4 µM (inactive)
- GI50 [33]: 27.4 µM (inactive)
- GI50 [34]: 25.6 µM (inactive)
- GI50 [35]: 58.5 µM (inactive)
- GI50 [36]: 37 µM (inactive)
- GI50 [37]: 39.5 µM (inactive)
- GI50 [38]: 41.5 µM (inactive)
- GI50 [39]: 26.4 µM (inactive)
- GI50 [40]: 29.2 µM (inactive)
- GI50 [41]: 41.3 µM (inactive)
- GI50 [42]: 50.1 µM (inactive)
- GI50 [43]: 23.8 µM (inactive)
- GI50 [44]: 38.9 µM (inactive)
- GI50 [58]: 4.06 µM (inactive)
- GI50 [46]: 45.9 µM (inactive)
- GI50 [47]: 23.4 µM (inactive)
- GI50 [48]: 21.3 µM (inactive)
- GI50 [49]: 25.4 µM (inactive)
- GI50 [50]: 31.9 µM (inactive)
- GI50 [51]: 27.4 µM (inactive)
- GI50 [52]: 20.3 µM (inactive)
- GI50 [53]: 27.1 µM (inactive)
- GI50 [54]: 26.7 µM (inactive)
- GI50 [55]: 42.6 µM (inactive)

SMILES: COc1ccc(OC2OC(CO)C(OCc3ccccc3)C(OCc3ccccc3)C2OCc2ccccc2)cc1 (stereo unspecified)
- GI50 [1]: 18.8 µM (inactive)
- GI50 [2]: > 100 µM (inactive)
- GI50 [4]: > 100 µM (inactive)
- GI50 [5]: 2.02 µM (inactive)
- GI50 [59]: 63.2 µM (inactive)
- GI50 [6]: > 100 µM (inactive)
- GI50 [7]: 15.8 µM (inactive)
- GI50 [8]: > 100 µM (inactive)
- GI50 [9]: 11.1 µM (inactive)
- GI50 [10]: > 100 µM (inactive)
- GI50 [11]: > 100 µM (inactive)
- GI50 [12]: 39.5 µM (inactive)
- GI50 [13]: > 100 µM (inactive)
- GI50 [14]: 76.7 µM (inactive)
- GI50 [15]: > 100 µM (inactive)
- GI50 [16]: 56.9 µM (inactive)
- GI50 [17]: 11.3 µM (inactive)
- GI50 [18]: 14.8 µM (inactive)
- GI50 [20]: 54.8 µM (inactive)
- GI50 [21]: > 100 µM (inactive)
- GI50 [22]: 31.6 µM (inactive)
- GI50 [23]: > 100 µM (inactive)
- GI50 [24]: 6.1 µM (inactive)
- GI50 [25]: 11.4 µM (inactive)
- GI50 [57]: 88.9 µM (inactive)
- GI50 [26]: > 100 µM (inactive)
- GI50 [27]: > 100 µM (inactive)
- GI50 [28]: > 100 µM (inactive)
- GI50 [29]: 41 µM (inactive)
- GI50 [30]: 76 µM (inactive)
- GI50 [31]: 39.1 µM (inactive)
- GI50 [32]: 61.9 µM (inactive)
- GI50 [33]: 40 µM (inactive)
- GI50 [34]: > 100 µM (inactive)
- GI50 [35]: 72.9 µM (inactive)
- GI50 [36]: 9.79 µM (inactive)
- GI50 [37]: 17.5 µM (inactive)
- GI50 [38]: > 100 µM (inactive)
- GI50 [39]: 6.98 µM (inactive)
- GI50 [40]: > 100 µM (inactive)
- GI50 [41]: 22.3 µM (inactive)
- GI50 [42]: > 100 µM (inactive)
- GI50 [43]: 15.5 µM (inactive)
- GI50 [44]: > 100 µM (inactive)
- GI50 [45]: > 100 µM (inactive)
- GI50 [58]: 14.4 µM (inactive)
- GI50 [46]: > 100 µM (inactive)
- GI50 [47]: 25.9 µM (inactive)
- GI50 [48]: 25.7 µM (inactive)
- GI50 [49]: 44.4 µM (inactive)
- GI50 [50]: > 100 µM (inactive)
- GI50 [51]: > 100 µM (inactive)
- GI50 [52]: > 100 µM (inactive)
- GI50 [53]: 1.48 µM (inactive)
- GI50 [54]: > 100 µM (inactive)
